According to patent US20150004110A1, “NOVEL ANTI-AGING AND DEPIGMENTING COSMETIC COMPOSITIONS” (DIVERCHIM, priority 2011, published 2015):

Assays:
[1] = system: matrix metallopeptidase gene MMP9; assay: RT-qPCR expression of MMP9 in keratinocytes; assay type: cell-based, human; conditions: 10 μM
Procedure: (§1) The expression of the specific markers was evaluated by RT-qPCR (reverse transcription quantitative polymerase chain reaction) on messenger RNAs extracted from the cell lawns from each treatment. The transcriptomic profile contains 64 genes selected for their importance in keratinocyte differentiation. The PCR reactions (polymerase chain reactions) were carried out by quantitative PCR with the “Light Cycler” system (Roche Molecular System Inc.) according to the procedures recommended by the supplier. Normal human epidermal keratinocytes were incubated in the presence of compound 1 or a reference with calcium chloride. The expression of the specific markers was evaluated by RT-qPCR on the messenger RNAs extracted from the cell lawns from each treatment.

PPARα (h) = biological target: T1, PPARα (h) (Homo sapiens, UniProt Q07869); assay: PPARα antagonist effect, coactivator Alpha screen; assay type: biochemical
T1 sequence (Q07869 1-468): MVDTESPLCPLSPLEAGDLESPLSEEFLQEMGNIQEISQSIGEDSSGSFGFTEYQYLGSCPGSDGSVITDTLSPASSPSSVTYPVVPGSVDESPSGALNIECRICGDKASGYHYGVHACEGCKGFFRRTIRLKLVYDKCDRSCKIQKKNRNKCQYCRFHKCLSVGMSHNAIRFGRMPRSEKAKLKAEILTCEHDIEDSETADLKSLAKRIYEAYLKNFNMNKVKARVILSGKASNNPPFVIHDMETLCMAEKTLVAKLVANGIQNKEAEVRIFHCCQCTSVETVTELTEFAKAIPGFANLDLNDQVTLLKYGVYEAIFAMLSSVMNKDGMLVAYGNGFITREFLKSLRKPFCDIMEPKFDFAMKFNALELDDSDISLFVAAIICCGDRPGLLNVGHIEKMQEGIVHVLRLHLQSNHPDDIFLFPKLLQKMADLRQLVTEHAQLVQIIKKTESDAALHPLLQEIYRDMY
Procedure: The agonist or antagonist activity of compound 1 on the PPAR receptors was tested by fluorescence techniques. • Material and Methods
The results are expressed as: • percentage of control specific agonist response (measured specific response/control specific agonist response)×100) and • percentage inhibition of the control specific agonist response (100−((measured specific response)/control specific agonist response)×100)) obtained in the presence of compound 1.
The EC50 values (concentration at which the maximum specific response is 50%) and the IC50 values (concentration at which the maximum control specific agonist response is inhibited by 50%) are determined by non-linear regression analysis of the concentration-response curves with a mean replicated value using adjustment of Hill's equation
For the antagonists, the apparent dissociation constants (KB) were calculated using the modified Cheng-Prusoff equation

B16 melanocytes = assay: Cell viability, MTT reduction test; assay type: cell-based
Procedure: The melanocytes were seeded in a 96-well plate and were cultured for 24 h (37° C., 5% CO2, DMEM 1 g/L glucose without phenol red supplemented with glucose at 3 g/L, L-glutamine at 2 mM, penicillin at 50 U/mL, streptomycin at 50 μg/mL, foetal calf serum (FCS) at 10%). After incubation, the culture medium was then replaced with culture medium supplemented or not supplemented (unstimulated control) with a stable derivative of α-MSH and containing or not containing (controls) the test compounds or the reference (kojic acid at 25, 100, 400, 800 μg/mL). Each experiment was carried out with n=3, apart from the controls carried out with n=6, then the cells were incubated for 72 h. Wells without cells received in parallel the same quantities of medium supplemented or not supplemented with NDP-MSH and containing or not containing the test compounds or the reference in order to quantify the background noise associated with the presence of the compounds. At the end of the treatment, the cells were incubated in the presence of MTT (tetrazolium salt), the transformation of which to blue crystals of formazan is proportional to the activity of succinate dehydrogenase (mitochondrial enzyme). After dissociation of the cells, the formazan was dissolved in DMSO medium and the optical density (OD), representative of the number of living cells and of their metabolic reactivity, was measured with a microplate reader at 540 nm (VERSAmax, Molecular Devices). The operating conditions are the same as in Example 12.

[2] = system: normal human epidermal keratinocytes; assay: Differential expression PCR arrays (RT-qPCR) of keratinocyte differentiation markers; assay type: cell-based; conditions: 10 μM
Procedure: as §1

interleukin-8 (IL-8) = assay: Release of IL-8 by NCTC-2544 keratinocytes stimulated by PMA; assay type: cell-based, human; conditions: NCTC-2544 stimulated by PMA
Procedure: (§2) The effects of compound 1 were evaluated on two routes of inflammation, the “chemokine” route and the “prostaglandin” route, by measuring the release of interleukin-8 (IL-8) and of prostaglandin E2 (PGE2) by a human keratinocyte line NCTC-2544 stimulated by phorbol-myristate acetate (PMA).

collagen III = assay: Staining and immunolabelling of skin explant sections: collagen III; assay type: cell-based, human; conditions: treated skin explant sections
Procedure: 1. Preparation of the explants • During abdominoplasty of a person, 45 skin explants were prepared. The explants were put in BEM medium (BIO-EC's Explants Medium) for survival at 37° C. in humid atmosphere, enriched with 5% CO2.
2. Application of the products • The solutions are prepared in DMSO from pure products, in order to obtain final concentrations of […] by incorporating an identical volume of 10 μl in each well and for each treatment. The treatment was carried out in the survival medium on days 0, 1, 2, 5 and 7.
3. Taking samples • On D0, the 3 explants of batch TO were taken and each explant was cut in two. One part was fixed in buffered formol for observation of the general morphology. The other was frozen and stored at −80° C. • On D5 and D9, 3 explants from each batch were taken and treated in the same way.
4. Histological treatment • After fixation for 48 hours in buffered formol, the samples were dehydrated and embedded in paraffin using a Leica 1020 automatic dehydrator. They were embedded according to procedure MO-H-153 using a Leica EG 1160 coating station. Sections of 5 μm were prepared according to procedure MO-H-173 using a Minot-type microtome, Leica RM 2125 and mounted on Superfrost® histological glass slides.
6. Staining and immunolabelling
Immunolabelling will be carried out on sections with the appropriate antibody. […]

prostaglandin E2 (PGE2) = assay: Release of PGE2 by NCTC-2544 keratinocytes stimulated by PMA; assay type: cell-based, human; conditions: NCTC-2544 stimulated by PMA
Procedure: as §2

[3] = system: normal human dermal fibroblasts; assay: Neosynthesis of sulphated GAGs ([35S]-sulphate incorporation) in dermal fibroblasts; assay type: cell-based; conditions: monolayer of normal human dermal fibroblasts
Procedure: The effects of this compound were evaluated on a monolayer of normal human dermal fibroblasts by measuring the neosynthesis of glycosaminoglycans designated as sulphated GAGs (incorporation of [^35S]-sulphate). […] This might explain the effect of dermal reinforcement already observed on skin explants ex vivo.

## Oc1ccccc1CCOc1ccc(F)cc1 [Compound 1, 2-[2-(4-fluoro-phenoxy)-ethyl]-phenol]
[1]
  Expression of the MMP9 gene: inhibition of expression
PPARα (h); 10^−5 M, read-out: % Inhibition of control agonist response
  inhibition at 10 µM: 4%
PPARα (h); 10^−6 M, read-out: % Inhibition of control agonist response
  inhibition at 1 µM: 0%
PPARα (h); 10^−7 M, read-out: % Inhibition of control agonist response
  inhibition at 0.1 µM: 1%
PPARα (h); 10^−7 to 10^−5 M
  PPARα antagonist activity (conclusion in words): not an antagonist
B16 melanocytes; 10 μM, B16, 72 h, Table 2
  Viability (MTT) % stimulated control: 83%
B16 melanocytes; 30 μM, B16, 72 h, Table 2
  Viability (MTT) % stimulated control: 86%
B16 melanocytes; 30 μM, comparison with 2 reference molecules, Table 3
  Viability (MTT) % stimulated control: 85%
B16 melanocytes; 100 μM, B16, 72 h, Table 2
  Viability (MTT) % stimulated control: 22%
B16 melanocytes; 100 μM, comparison with 2 reference molecules, Table 3
  Viability (MTT) % stimulated control: 13%
[2]
  Effect on keratinocyte differentiation (conclusion): pro-differentiating effect
[2]; compared with calcium chloride at 1.5 mM
  Stimulation of expression of markers involved in lipid synthesis, antimicrobial defence, innate immunity and cell-cell interactions: less, but similar to calcium chloride at 1.5 mM
interleukin-8 (IL-8)
  Release of IL-8: without altering
Collagen III
  Collagen III in the papillary dermis: very slight densification
Prostaglandin E2 (PGE2)
  Release of PGE2: concentration-dependent inhibition
[3]
  Neosynthesis of sulphated GAGs: stimulated the neosynthesis of sulphated GAGs, in a non-concentration-dependent fashion
